Results taken from US20240366611A1, “METHODS OF TREATING A DISEASE OR DISORDER” (Ascentage Pharma (Suzhou) Co., Ltd., priority 2021, published 2024).

Tests used:
[1] = system: HBG mRNA in human CD34+ HSC; assay: HBG mRNA level in human CD34+ HSC (qRT-PCR); type: cell-based; settings: 7 days of treatment
Procedure: (§1) Human cord blood CD34+ hematopoietic stem cells (HSC) were first expanded in the expansion medium (StemSpan SFEM II+StemSpan CD34 Expansion Supplement) to achieve the desired number of cells, and then differentiated in differentiation medium (StemSpan SFEM II+StemSpan Erythroid Expansion Supplement (100×)) for three days without drug treatment. Various concentrations of Cpd. 73 were added on the fourth day of differentiation and further incubated with the cells for another 7 days. 33 mM Hydroxyurea was used as the control.
After 7 days of treatment, the cells were collected. Total RNA was isolated using Trizol LS reagent (Invitrogen-10296028) and 1 μg RNA of each sample was reverse transcribed into cDNA using High Capacity cDNA Reverse Transcription Kit (AB (Applied Biosystems)-4374966), according to the manufacturer's instructions. Quantitative RT-PCR (qRT-PCR) was performed using an Applied Biosystems QuantStudio 7 Flex system with the primer pairs shown as below: hHBG-mRNA-F1 (5′-[…]-3′) and hHBG-mRNA-R1 (5′-TCACTCAGCTGGGCAAAGG-3′). […] The HBG mRNA level were 1.09-, 2.49-, 7.84-, 9.69- and 12.2-folds of the vehicle group when the cells were treated with 0.01 μM, 0.03 μM, 0.1 μM, 0.3 μM and 1.0 μM Cpd. 73 respectively. […] 73 which increased HBG mRNA by 12.2 folds (p<0.0001, vs. vehicle). The HBG mRNA level of cells treated with 33 mM Hydroxyurea, an approved medicine for SCD, was 6.46-folds of the vehicle group.

[2] = system: HbF in human CD34+ HSC; assay: HbF concentration in human CD34+ HSC by ELISA; type: cell-based; settings: 7 days of treatment
Procedure: as §1
After 7 days of treatment, the cells were collected and lysed. The concentration of HbF in the cell lysate was determined using a Human Fetal Hemoglobin (HBF) ELISA Kit (MyBioSource, MBS2024474). […] The cellular HbF concentration were 1.27-, 1.39-, 1.52-, 1.58- and 1.69-folds of the vehicle group when the cells were treated with 0.01 μM, 0.03 μM, 0.1 μM, 0.3 μM and 1.0 μM Cpd. 73 respectively. […] 73 where the cellular HbF concentration was 1.69-folds of the vehicle group (p<0.01). HbF concentration of cells treated with 33 mM Hydroxyurea was 1.18-folds of the vehicle group. Clinically, small increases of HbF concentration (1-5%) have the potential to provide clinical benefits to all SCD patients.

## CC(C)N1Cc2cc(C(F)(F)F)ncc2-c2cnc(NCc3c(F)ccc4c3CCO4)n3cnc(c23)C1=O [Cpd. 73, 12-(((5-fluoro-2,3-dihydrobenzofuran-4-yl)methyl)amino)-4-isopropyl-7-(trifluoromethyl)-4,5-dihydro-3H-2,4,8,11,12a-pentaazabenzo[4,5]cycloocta[1,2,3-cd]inden-3-one]
[1]; 0.01 μM
  HBG mRNA level, folds of the vehicle group: 1.09 folds
[1]; 0.03 μM
  HBG mRNA level, folds of the vehicle group: 2.49 folds
[1]; 0.1 μM
  HBG mRNA level, folds of the vehicle group: 7.84 folds
[1]; 0.3 μM
  HBG mRNA level, folds of the vehicle group: 9.69 folds
[1]; 1.0 μM, maximal effect, p<0.0001 vs vehicle
  HBG mRNA level, folds of the vehicle group: 12.2 folds
[2]; 0.01 μM
  cellular HbF concentration, folds of the vehicle group: 1.27 folds
[2]; 0.03 μM
  cellular HbF concentration, folds of the vehicle group: 1.39 folds
[2]; 0.1 μM
  cellular HbF concentration, folds of the vehicle group: 1.52 folds
[2]; 0.3 μM
  cellular HbF concentration, folds of the vehicle group: 1.58 folds
[2]; 1.0 μM, maximal effect, p<0.01
  cellular HbF concentration, folds of the vehicle group: 1.69 folds
